In patent publication US20230416227A1, “PLASMA KALLIKREIN INHIBITORS” (Merck Sharp & Dohme LLC, priority 2020, published 2023) one finds IC50 data, which are given here for 23 compounds.

SMILES strings stand for the structures.

The assay has as its target T1, Human plasma kallikrein (Homo sapiens, UniProt P03952).
T1 construct: yields a heavy chain (371 amino acids) and a light chain (248 amino acids); purchased Enzyme Research Laboratories
The experiment in a line: Plasma Kallikrein Assay. Format: biochemical. The settings on record: purified Human plasma kallikrein 0.5 nM, substrate Acetyl-K-P-R-AFC, pH 7.4. The method, then: The effectiveness of a compound of the present invention as an inhibitor of plasma kallikrein can be determined using a relevant purified serine protease, and an appropriate synthetic substrate. The rate of hydrolysis of the chromogenic or fluorogenic substrate by the relevant serine protease was measured both in the absence and presence of compounds of the present invention. Assays were conducted at rt or at 37° C. […] A decrease in the rate of fluorescence change in the presence of inhibitor is indicative of enzyme inhibition. Such methods are known to one skilled in the art. The results of this assay are expressed as the half-maximal inhibitory concentrations (IC50), or the inhibitory constant, Ki.
Plasma kallikrein determinations were made in 50 mM HEPES buffer at pH 7.4 containing 150 mM NaCl, 5 mM CaCl2), and 0.1% PEG 8000 (polyethylene glycol; Fisher Scientific). […]
Times required to achieve equilibration between enzyme and inhibitor were determined in control experiments. The reactions were performed under linear progress curve conditions and fluorescence increase measured at 405 Ex/510 Em nm. […] IC50 was determined by inflection point from a four parameter logistic curve fit. Ki was calculated using the Cheng Prusoff equation, Ki=IC50/(1+([S]/Km)).

T1 sequence (P03952 391-638 limits assumed): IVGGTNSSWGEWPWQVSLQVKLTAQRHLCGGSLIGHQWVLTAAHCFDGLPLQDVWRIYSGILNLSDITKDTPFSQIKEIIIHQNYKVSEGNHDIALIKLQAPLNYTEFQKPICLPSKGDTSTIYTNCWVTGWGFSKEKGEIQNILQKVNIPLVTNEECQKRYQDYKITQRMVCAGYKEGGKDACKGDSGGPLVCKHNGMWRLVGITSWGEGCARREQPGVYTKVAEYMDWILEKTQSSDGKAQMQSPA
T1 sequence (P03952 20-390 partner limits assumed): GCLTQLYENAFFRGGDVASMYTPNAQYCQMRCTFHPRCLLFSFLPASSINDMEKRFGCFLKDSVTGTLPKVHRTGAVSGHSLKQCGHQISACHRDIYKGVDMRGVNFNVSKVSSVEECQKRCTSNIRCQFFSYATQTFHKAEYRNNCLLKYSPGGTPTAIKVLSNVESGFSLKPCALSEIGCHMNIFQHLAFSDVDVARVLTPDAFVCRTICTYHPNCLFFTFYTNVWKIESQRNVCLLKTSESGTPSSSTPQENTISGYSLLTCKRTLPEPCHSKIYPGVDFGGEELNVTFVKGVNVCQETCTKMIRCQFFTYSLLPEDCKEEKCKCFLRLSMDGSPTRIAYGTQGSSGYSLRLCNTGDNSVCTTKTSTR

In turn, `Nc1ncc(-c2c(C(F)F)ccc(Cl)c2F)nc1C(=O)Nc1cnn(Cc2cnc(N3CCC3)nc2)c1` [Example 3, 3-Amino-N-(1-((2-(azetidin-1-yl)pyrimidin-5-yl)methyl)-1H-pyrazol-4-yl)-6-(3-chloro-6-(difluoromethyl)-2-fluorophenyl)pyrazine-2-carboxamide] displayed an IC50 of 40.5 nM. This lies in the double-digit nanomolar range. The compound `O=C(Nc1cnn(Cc2cnc(N3CCC3)nc2)c1)c1nc(-c2c(C(F)F)ccc(Cl)c2F)cnc1O` [Example 20, N-(1-((2-(Azetidin-1-yl)pyrimidin-5-yl)methyl)-1H-pyrazol-4-yl)-6-(3-chloro-6-(difluoromethyl)-2-fluorophenyl)-3-hydroxypyrazine-2-carboxamide] had an IC50 of 15.4 nM. For the compound `Cc1nc(N2CCC2)cnc1Cn1cc(NC(=O)c2cncc(-c3c(C(F)F)ccc(Cl)c3F)n2)cn1` [Example 24, N-(1-((5-(Azetidin-1-yl)-3-methylpyrazin-2-yl)methyl)-1H-pyrazol-4-yl)-6-(3-chloro-6-(difluoromethyl)-2-fluorophenyl)pyrazine-2-carboxamide], the IC50 worked out at 26.8 nM. `N#Cc1ccc(Cl)c(F)c1-c1cncc(C(=O)Nc2cnn(Cc3ccc(N4CCC4)nc3)c2)n1` [Example 52, N-(1-((6-(Azetidin-1-yl)pyridin-3-yl)methyl)-1H-pyrazol-4-yl)-6-(3-chloro-6-cyano-2-fluorophenvl)pyrazine-2-carboxamide] had an IC50 of 17.1 nM. Against the preceding compound, the IC50 is about 1.6-fold lower. On to `N#Cc1ccc(Cl)c(F)c1-c1cncc(C(=O)Nc2cnn(Cc3cnc(N4CCC4)nc3)c2)n1` [Example 53, N-(1-((2-(Azetidin-1-yl)pyrimidin-5-yl)methyl)-1H-pyrazol-4-yl)-6-(3-chloro-6-cyano-2-fluorophenyl)pyrazine-2-carboxamide], for which the IC50 was found to be 30.7 nM. Then `O=C(Nc1cnn(Cc2ccc(N3CC[C@@H]3CO)nc2)c1)c1cncc(-c2c(C(F)F)ccc(Cl)c2F)n1` [Example 68, (R)-6-(3-Chloro-6-(difluoromethyl)-2-fluorophenyl)-N-(1-((6-(2-(hydroxymethyl)azetidin-1-yl)pyridin-3-yl)methyl)-1H-pyrazol-4-yl)pyrazine-2-carboxamide], with 26.3 nM; and `CC(c1cnc(N(C)CC(=O)N(C)C)nc1)n1cc(NC(=O)c2cncc(-c3c(C(F)F)ccc(Cl)c3F)n2)cn1` (centres unmarked) [Example 72, 6-(3-Chloro-6-(difluoromethyl)-2-fluorophenyl)-N-(1-(1-(2-((2-(dimethylamino)-2-oxoethyl)(methyl)amino)pyrimidin-5-yl)ethyl)-1H-pyrazol-4-yl)pyrazine-2-carboxamide], with 2.5 nM; and `O=C(Nc1cnn(Cc2cnc(N3CCC4OCCC43)nc2)c1)c1cncc(-c2c(C(F)F)ccc(Cl)c2F)n1` (centres unmarked) [Example 75, 6-(3-Chloro-6-(difluoromethyl)-2-fluorophenyl)-N-(1-((2-(hexahydro-4H-furo[3,2-b]pyrrol-4-yl)pyrimidin-5-yl)methyl)-1H-pyrazol-4-yl)pyrazine-2-carboxamide], with 5 nM. The compound `CC(c1cnc(N2Cc3cncnc3C2)nc1)n1cc(NC(=O)c2cncc(-c3c(C(F)F)ccc(Cl)c3F)n2)cn1` (centres unmarked) [Example 78, 6-(3-Chloro-6-(difluoromethyl)-2-fluorophenyl)-N-(1-(1-(2-(5,7-dihydro-6H-pyrrolo[3,4-d]pyrimidin-6-yl)pyrimidin-5-yl)ethyl)-1H-pyrazol-4-yl)pyrazine-2-carboxamide] returned an IC50 of 5.6 nM. This IC50 and that of the compound before are within 1.5-fold of each other. `CC(c1cnc(N(CCO)Cc2ccccn2)nc1)n1cc(NC(=O)c2cncc(-c3c(C(F)F)ccc(Cl)c3F)n2)cn1` (centres unmarked) [Example 85, 6-(3-Chloro-6-(difluoromethyl)-2-fluorophenyl)-N-(1-(1-(2-((2-hydroxyethyl)(pyridin-2-ylmethyl)amino)pyrimidin-5-yl)ethyl)-1H-pyrazol-4-yl)pyrazine-2-carboxamide]: the IC50 was 11.8 nM.

`CN(C)CCN(CCO)c1ncc(Cn2cc(NC(=O)c3cncc(-c4c(C(F)F)ccc(Cl)c4F)n3)cn2)cn1` [Example 88, 6-(3-Chloro-6-(difluoromethyl)-2-fluorophenyl)-N-(1-((2-((2-(dimethylamino)ethyl)(2-hydroxyethyl)amino)pyrimidin-5-yl)methyl)-1H-pyrazol-4-yl)pyrazine-2-carboxamide] gave an IC50 of 14.9 nM. The compound `CC(c1cnc(N2Cc3ccncc3C2)nc1)n1cc(NC(=O)c2cncc(-c3c(C(F)F)ccc(Cl)c3F)n2)cn1` (centres unmarked) [Example 89, 6-(3-Chloro-6-(difluoromethyl)-2-fluorophenyl)-N-(1-(1-(2-(1,3-dihydro-2H-pyrrolo[3,4-c]pyridin-2-yl)pyrimidin-5-yl)ethyl)-1H-pyrazol-4-yl)pyrazine-2-carboxamide] came in with an IC50 of 17.3 nM.

`O=C(Nc1cnn(Cc2cnc(N3CC4C(C3)C4(F)F)nc2)c1)c1cncc(-c2c(C(F)F)ccc(Cl)c2F)n1` (centres unmarked) [Example 90, 6-(3-Chloro-6-(difluoromethyl)-2-fluorophenyl)-N-(1-((2-(6,6-difluoro-3-azabicyclo[3.1.0]hexan-3-yl)pyrimidin-5-yl)methyl)-1H-pyrazol-4-yl)pyrazine-2-carboxamide] showed a half-maximal inhibitory concentration (IC50) of 17.8 nM. The value for `CCC(=O)C1C2CC2CN1c1ncc(Cn2cc(NC(=O)c3cncc(-c4c(C(F)F)ccc(Cl)c4F)n3)cn2)cn1` (centres unmarked) [Example 91, 6-(3-Chloro-6-(difluoromethyl)-2-fluorophenyl)-N-(1-((2-(2-propionyl-3-azabicyclo[3.1.0]hexan-3-yl)pyrimidin-5-yl)methyl)-1H-pyrazol-4-yl)pyrazine-2-carboxamide] was 17.9 nM. The value for `CC(c1cnc(N2CCN(C)C(=O)C2)nc1)n1cc(NC(=O)c2cncc(-c3c(C(F)F)ccc(Cl)c3F)n2)cn1` (centres unmarked) [Example 95, 6-(3-Chloro-6-(difluoromethyl)-2-fluorophenyl)-N-(1-(1-(2-(4-methyl-3-oxopiperazin-1-yl)pyrimidin-5-yl)ethyl)-1H-pyrazol-4-yl)pyrazine-2-carboxamide] was 21.7 nM. Consider `CN(C)CCN(C)c1ncc(Cn2cc(NC(=O)c3cncc(-c4c(C(F)F)ccc(Cl)c4F)n3)cn2)cn1` [Example 98, 6-(3-Chloro-6-(difluoromethyl)-2-fluorophenyl)-N-(1-((2-((2-(dimethylamino)ethyl)(methyl)amino)pyrimidin-5-yl)methyl)-1H-pyrazol-4-yl)pyrazine-2-carboxamide], for which the IC50 is 28.2 nM. Then `CC(C)(O)CC1CCCN1c1ncc(Cn2cc(NC(=O)c3cncc(-c4c(C(F)F)ccc(Cl)c4F)n3)cn2)cn1` (centres unmarked) [Example 106, 6-(3-Chloro-6-(difluoromethyl)-2-fluorophenyl)-N-(1-((2-(2-(2-hydroxy-2-methylpropyl)pyrrolidin-1-yl)pyrimidin-5-yl)methyl)-1H-pyrazol-4-yl)pyrazine-2-carboxamide], with 41.3 nM; and `O=C(Nc1cnn(Cc2cnc(N3CCCC3C3(O)CC3)nc2)c1)c1cncc(-c2c(C(F)F)ccc(Cl)c2F)n1` (centres unmarked) [Example 107, 6-(3-Chloro-6-(difluoromethyl)-2-fluorophenyl)-N-(1-((2-(2-(1-hydroxycyclopropyl)pyrrolidin-1-yl)pyrimidin-5-yl)methyl)-1H-pyrazol-4-yl)pyrazine-2-carboxamide], with 43.5 nM. Then `O=C(Nc1cnn(Cc2cnc(N3CCC4CC43)nc2)c1)c1cncc(-c2c(C(F)F)ccc(Cl)c2F)n1` (centres unmarked) [Example 108, N-(1-((2-(2-Azabicyclo[3.1.0]hexan-2-yl)pyrimidin-5-yl)methyl)-1H-pyrazol-4-yl)-6-(3-chloro-6-(difluoromethyl)-2-fluorophenyl)pyrazine-2-carboxamide], with 45 nM. With `O=C(Nc1cnn(Cc2cnc(N3CCCC3Cn3ccnc3)nc2)c1)c1cncc(-c2c(C(F)F)ccc(Cl)c2F)n1` (centres unmarked) [Example 109, N-(1-((2-(2-((1H-Imidazol-1-yl)methyl)pyrrolidin-1-yl)pyrimidin-5-yl)methyl)-1H-pyrazol-4-yl)-6-(3-chloro-6-(difluoromethyl)-2-fluorophenyl)pyrazine-2-carboxamide], the IC50 stood at 45.9 nM. This IC50 and that of the compound before are within 1.5-fold of each other.

The compound `O=C(Nc1cnn(Cc2cnc(N3CCCC3CO)nc2)c1)c1cncc(-c2c(C(F)F)ccc(Cl)c2F)n1` (centres unmarked) [Example 113, 6-(3-Chloro-6-(difluoromethyl)-2-fluorophenyl)-N-(1-((2-(2-(hydroxymethyl)pyrrolidin-1-yl)pyrimidin-5-yl)methyl)-1H-pyrazol-4-yl)pyrazine-2-carboxamide] came in with an IC50 of 65.1 nM. The value for `CN(CCN1CCCC1)c1ccc(Cn2cc(NC(=O)c3cncc(-c4c(C(F)F)ccc(Cl)c4F)n3)cn2)cn1` [Example 114, 6-(3-Chloro-6-(difluoromethyl)-2-fluorophenyl)-N-(1-((6-(methyl(2-(pyrrolidin-1-yl)ethyl)amino)pyridin-3-yl)methyl)-1H-pyrazol-4-yl)pyrazine-2-carboxamide] was 2.7 nM; that for `O=C(Nc1cnn(Cc2ccc(N3CCCC3CCO)nc2)c1)c1cncc(-c2c(C(F)F)ccc(Cl)c2F)n1` (centres unmarked) [Example 115, 6-(3-Chloro-6-(difluoromethyl)-2-fluorophenyl)-N-(1-((6-(2-(2-hydroxyethyl)pyrrolidin-1-yl)pyridin-3-yl)methyl)-1H-pyrazol-4-yl)pyrazine-2-carboxamide] was 3.5 nM.
